Legend:
[1] = test system: IR, Akt and GLUT2 in liver of T1DM mice; assay: Western blot of IR-related signaling mediators in liver after 7-day borapetoside C, alone or with insulin; type: in vivo, ICR mice
Description: (§1) T1DM mice were induced by a known method. In brief, an intraperitoneal injection of streptozotocin (STZ; Sigma Chemical Co.; St. Louis, Mo.) at 150 mg/kg was performed in mice that were fasted for 48 h. The induction of T1DM was assessed and confirmed when the mice had plasma glucose levels ≧350 mg/dL, accompanied with polyuria, hyperphagia and decreased body weight. The control mice group received an injection of vehicle and then carried out for 4 weeks. T2DM mice were induced by maintaining on a fat-rich chow diet and fructose-sweetened water for 4 weeks from the age of 4-5 weeks according to previous methods. The induction T2DM mice were assessed by measuring fasting plasma glucose levels and confirmed when plasma glucose level was ≧150 mg/dL after a 4-week induction.
After treatment, the mice were sacrificed by cervical dislocation under anesthesia.
The liver was immediately frozen in liquid nitrogen. The liver tissue was preserved at −80° C. before they were used for further assays.
Tissues were homogenized in T-PER® Tissue Protein Extraction Reagent (Pierce Biotechnology, Rockford, Ill.) with Halt™ Protease Inhibitor Single-Use Cocktail (Pierce Biotechnology, Rockford, Ill.). Liver homogenates were prepared by mechanical homogenization (Polytron PT3100, Luzernerstrasse, Switzerland). After centrifuging the homogenates at 10,000 g for 30 min, the supernatants were collected and frozen at −80° C. for further use. The protein concentrations were determined by using a BCA Protein Assay Kit (Pierce Biotechnology, Rockford, Ill.). For western blot analysis, about 60 μg of protein preparations were applied on 10% sodium dodecyl sulfate-polyacrylamide gel electrophoresis and then transferred to polyvinylidene difluoride membranes (Millipore, Billerica, Mass.). The membranes were blocked with 5% (w/v) non-fat dry milk in phosphate buffered saline (PBS) containing 0.1% Tween 20 (PBS-T). After blocking, the blotted membrane was incubated with anti-phospho-insulin receptor β (IRβ) (Tyr^1345), phospho-Akt (Ser^473) (Cell Signaling Technology, Beverly, Mass.), anti-IRβ, Akt, β-Actin (Santa Cruz Biotechnology, Santa Cruz, Calif.), and anti-GLUT2 antibodies (Abcam, Cambridge, UK) in presence of 3% bovine serum albumin (BSA) in PBS-T buffer. Following the incubation, the membranes were washed 3 times with PBS-T for 15 min each and then incubated with the appropriate peroxidase-conjugated secondary antibodies (Santa Cruz. Biotechnology, USA) in PBS-T. After removal of the secondary antibody, blots were washed and developed using the enhanced chemiluminescenece (ECL) western blotting system (Millipore, Billerica, Mass.). The density of the protein bands were quantified using ImageQuant.

[2] = test system: non-diabetic, T1DM and T2DM mice; assay: Plasma glucose after bolus intraperitoneal borapetoside C; type: in vivo, ICR mice
Description: as §1
Blood samples were collected from the orbital vascular plexus of mice under anesthesia with sodium pentobarbital (80 mg/kg, intraperitoneal, Sigma Chemical Co., St. Louis, Mo., USA). Blood samples were then centrifuged at 13000 rpm for 5 min, and the plasma was kept on ice prior to the assay. The plasma glucose concentration was measured using commercial kits following manufacturer's instructions (BioSystems S. A., Barcelona, Spain).

[3] = test system: human hepatocellular carcinoma cell line, Hep3B; assay: Glycogen content assay in Hep3B cells; type: cell-based; details: 30 minutes
Description: The C2C12 skeletal muscle cells were cultured in Dulbecco's modified Eagle's medium (DMEM; Gibco/Invitrogen, Carlsbad, Calif.), and the human hepatocellular carcinoma cell line, Hep3B, was cultured in Roswell Park Memorial Institute medium 1640 (RPMI 1640 medium; Gibco/Invitrogen, Carlsbad, Calif.). Cells were cultured at 37° C. in the humidified incubator supplied with 5% CO2. Culture mediums were supplemented with 4.5 mgmL^−1 glucose, penicillin 100 IUmL^−1, streptomycin 100 μgmL^−1 and 10% fetal bovine serum (Gibco/Invitrogen, Carlsbad, Calif.). Only C2C12 cells were then switched to 2% horse serum for 3 days after reaching the 70% confluence. Myotubes formation was achieved after 4 days of incubation, and the cells were used for subsequent experiments. Culture mediums were replaced by serum free DMEM or RPMI for 24 h before experiments (see e.g., procedure described in Sultan et al., 2006).
C2C12 and Hep3B cells were treated with 1 nM insulin, 100 μM metformin, and the assigned concentration of borapetoside A for 30 minutes. To develop the insulin resistance state of cells, C2C12 cells were incubated with IL-6 at 20 ngmL^−1 for 1 hour. Later, the cells were treated with 1 nM insulin, 100 μM metformin, and the assigned concentration of borapetoside A for 30 minutes. After the assigned treatment, cells were washed twice with phosphate buffered saline (PBS). Glycogen content was measured as previously described, with some modifications (see e.g., Savage et al., 2008). The protein concentrations of the cell lysates were determined by using Pierce BCA Protein Assay Kit (Thermo-Scientific, Rockford, Ill.). The glycogen content of each sample was normalized by total protein.

[4] = borapetoside C 0.1 mg/kg twice daily, alone or with insulin 1.0 IU/kg twice daily
[5] = borapetoside C 5.0 mg/kg vs insulin 0.5 IU/kg twice daily

Row | Compound | expression of GLUT2 in liver ([1]; 5.0 mg/kg twice daily) | level of phosphorylated Akt in liver ([1]; 5.0 mg/kg twice daily) | level of phosphorylated IR in liver ([1]; 5.0 mg/kg twice daily) | GLUT2 in liver vs vehicle-treated [1, 4] | serine phosphorylation of Akt in liver vs vehicle-treated [1, 4] | tyrosine phosphorylation of IR in liver vs vehicle-treated [1, 4] | phosphorylation of Akt and GLUT2 expression compared with the effect of insulin [1, 5] | phosphorylation of IR compared with the effect of insulin [1, 5] | plasma glucose concentrations ([2]; bolus i.p. 0.5 to 5 mg/kg, non-diabetic, T1DM and T2DM mice) | plasma glucose levels ([2]; borapetoside C at 0.1 mg/kg alone) | fold increase of glycogen content ([3]; 10^−5 mol/L) [fold] | fold increase of glycogen content ([3]; 10^−6 mol/L) [fold] | fold increase of glycogen content ([3]; 10^−7 mol/L) [fold]
1 | COC(=O)C1=CCC[C@H]2[C@]3(C)C[C@@H](c4ccoc4)OC(=O)[C@@H]3C[C@@H](O[C@@H]3O[C@H](CO)[C@@H](O)[C@H](O)[C@H]3O)[C@@]12C [Borapetoside C, borapetoside C] | increased | increased | increased | not significantly increased | not significantly increased | not significantly increased | less phosphorylation of Akt and GLUT2 expression | more phosphorylation of IR | significantly lowered plasma glucose concentrations in a dose-dependent manner | did not alter the plasma glucose levels |  |  | 
2 | C[C@@]12C[C@@H](c3ccoc3)OC(=O)[C@@H]1C[C@@H]1OC(=O)[C@@]3(O)[C@@H](O[C@@H]4O[C@H](CO)[C@@H](O)[C@H](O)[C@H]4O)CC[C@@H]2[C@@]13C [Borapetoside A, borapetoside A] |  |  |  |  |  |  |  |  |  |  | 1.54±0.11 | 1.39±0.12 | 1.46±0.05
